Series [1] deals with Propionibacterium acnes. Conditions: literature values; cited from earlier work.
The subject of series [2] is Propionibacterium acnes. In words: Growth inhibition of Propionibacterium acnes by viable cell counting. The class given is cell-based. The note with it: 37° C. How it is done: The macelignan compound prepared in Example <1-1> was dissolved in dimethylsulfoxide to concentrations of 0.002%, 0.001% and 0.0005%, respectively. 100 μl of Propionibacterium acnes diluted to 2×10^5 CFU/ml was added to test tubes containing the macelignan solutions and allowed to react at 37° C. for 2 hr, 4 hr, 8 hr, 12 hr, 16 hr, 20 hr, and 24 hr. Each sample was serially diluted 10-fold and subjected to the pour plate method. The plates were cultured in an incubator at 37° C. and measured for viable cell colonies of Propionibacterium acnes.

For series [3], the system named is Propionibacterium acnes. In words: Minimum inhibitory concentration (MIC), broth serial dilution. The class given is cell-based. The note with it: Cutibacterium acnes; BHI broth, 37° C., at least 24 hours; read-out: Minimum inhibitory concentration against Propionibacterium acnes. How it is done: (§1) The macelignan compound prepared in Example <1-1> was dissolved in 0.5% methanol, and 1 ml of BHI (Brain Heart Infusion) broth was placed into each of test tubes. 1 ml of 2% macelignan solution was placed only into the first test tube and serially diluted 2-fold. Then, 100 μl of Propionibacterium acnes were added at 2×10^5 CFU/ml to each test tube and cultured at 37° C. for at least 24 hours. […] Using the same method, the minimum inhibitory concentrations against Staphylococcus aureus and Staphylococcus epidermis were also measured and the results are shown in Table 2.

For a further series, the system named is Staphylococcus aureus. The series is described as above. The class given is cell-based. The note with it: same method, read-out: Minimum inhibitory concentration against Staphylococcus aureus. The procedure: as §1
A further series deals with Staphylococcus epidermis. The series is described as above. The class given is cell-based. The note with it: same method, read-out: Minimum inhibitory concentration against Staphylococcus epidermis. The procedure:
as §1

For another series, the system named is acne-causing bacteria. In words: Thermal stability: antibacterial activity by well diffusion assay after thermal treatment. The class given is cell-based. Conditions: for Diameter of clear zone on the plate containing macelignan: 0.1% in dimethylsulfoxide. The procedure:
The macelignan compound prepared in Example <1-1> was dissolved in dimethylsulfoxide to a concentration of 0.1%. The sample was thermally treated for 30 minutes at different temperatures of 60° C., 70° C., 80° C., 90° C., 100° C., and 121° C. and measured for antibacterial activity by the well diffusion assay.
On the technique in general: In agar diffusion tests the substance spreads into inoculated agar from a disc or well.

The test system of the next series is acne patients. In words: Clinical test on acne patients, oral administration. The class given is in vivo, human. The procedure: The macelignan isolated and purified in Example <1-1> was clinically tested for acne treatment. • 30 men and women in their mid-30s, who suffer from acne, were selected as test subjects. The macelignan was administered to the test subjects at 600 mg two times a day for 4 weeks.

Where [4] appears, read: oral 600 mg two times a day, 4 weeks.

In brackets after ≈: the same amount, converted by molar mass.

On to `O=C(OOC(=O)c1ccccc1)c1ccccc1` [benzoyl peroxide], for which the “MIC against Propionibacterium acnes” value in the series on Propionibacterium acnes [1] is 500 to 1000 µg/mL.
For `COc1cc(C[C@H](C)[C@H](C)Cc2ccc3c(c2)OCO3)ccc1O` [macelignan], the “time within which the bacteria were almost dead” value in the series with Propionibacterium acnes [2] (macelignan 0.001% (10 μg/ml)) is at most 8 h; with Propionibacterium acnes [2] (macelignan 0.002% (20 μg/ml)), at most 2 h. The MIC in the series with Propionibacterium acnes [3] is 2 µg/mL (≈ 6.09 µM); with Staphylococcus aureus it was 125 µg/mL (≈ 381 µM); with Staphylococcus epidermis, 64 µg/mL (≈ 195 µM). The “Diameter of clear zone on the plate containing macelignan” value in the series with acne-causing bacteria (treated 30 minutes at 60° C.) is 17 mm; in the series with acne-causing bacteria (treated 30 minutes at 70° C.) it was 16 mm; in the series on acne-causing bacteria (treated 30 minutes at 80° C.), 17 mm; in the series with acne-causing bacteria (treated 30 minutes at 90° C.), 17 mm; with acne-causing bacteria (treated 30 minutes at 100° C.), 18 mm; in the series with acne-causing bacteria (treated 30 minutes at 121° C.), 17 mm. Besides, in the series with acne-causing bacteria (thermal treatment at 60° C.-121° C.), the “thermal stability (change of antibacterial activity after thermal treatment)” value was “little or no reduction in antibacterial activity”. The “Comedos, mean number after 4 weeks of administration” value in the series with acne patients (setting [4]) was 7.94. The “Nodules, mean number after 4 weeks of administration” value in the series on acne patients (setting [4]) was determined as 0.24. In addition, in the series with acne patients (setting [4]), the “Papules, mean number after 4 weeks of administration” value is on record as 5.69. Further, in the series with acne patients (setting [4]), the “Pustules, mean number after 4 weeks of administration” value was determined as 2.30. Moreover, the “number of lesions after 4 weeks compared to before administration” value with acne patients (oral 600 mg two times a day, 4 weeks, p-value<0.05) is listed as “remarkably reduced”. The “Comedos, mean number before administration” value in the series on acne patients (oral, before administration) is given as 18.92. Further, the “Nodules, mean number before administration” value in the series on acne patients (oral, before administration) came out at 0.74. The “Papules, mean number before administration” value with acne patients (oral, before administration) amounted to 14.47. Besides, in the series on acne patients (oral, before administration), the “Pustules, mean number before administration” value is 5.92.
As for `CC1=CCC(O)(C(C)C)CC1` (stereo not drawn) [terpinen-4-ol], the “MIC against Propionibacterium acnes” value in the series on Propionibacterium acnes [1] was 300 to 500 µg/mL.
Consider benzalkonium chloride, for which the “MIC against Propionibacterium acnes” value in the series with Propionibacterium acnes [1] was 200˜300 μg/ml.

The values above are taken from patent publication US8642646B2, “Method and composition for treating acne using lignan compounds” (New Tree Industry Co., Ltd., priority 2004, dated 2014).
